Test results taken from ChEMBL document CHEMBL1201862, “PubChem BioAssay data set” (2004).
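Briefly, cells in 96-well plates were exposed to five compound concentrations for 48 h, and endpoints were estimated by linear interpolation. GI50 marks 50% less growth.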 Activity calls are given as the source filed them. Rule as the data show it: active = GI50 up to about 1.1 µM and inactive = higher.

Legend:
Test in all cases: inhibition of tumour cell growth, NCI panel, 48 h
EKVX = test system: EKVX
MCF7 = test system: MCF7
786-0 = test system: 786-0
RXF 393 = test system: RXF 393
Hs-578T = test system: Hs-578T
SF-295 = test system: SF-295
SW-620 = test system: SW-620
OVCAR-3 = test system: OVCAR-3
M14 = test system: M14
NCI/ADR-RES = test system: NCI/ADR-RES
SNB-19 = test system: SNB-19
SK-MEL-2 = test system: SK-MEL-2
HOP-62 = test system: HOP-62
PC-3 = test system: PC-3
SK-OV-3 = test system: SK-OV-3
DU-145 = test system: DU-145
HCT-116 = test system: HCT-116
SR = test system: SR
MOLT-4 = test system: MOLT-4
HOP-92 = test system: HOP-92
ACHN = test system: ACHN
CCRF-CEM = test system: CCRF-CEM
OVCAR-4 = test system: OVCAR-4
NCI-H23 = test system: NCI-H23
KM12 = test system: KM12
HCT-15 = test system: HCT-15
MDA-N = test system: MDA-N
SNB-75 = test system: SNB-75
MDA-MB-231 = test system: MDA-MB-231
OVCAR-8 = test system: OVCAR-8
BT-549 = test system: BT-549
A498 = test system: A498
UACC-257 = test system: UACC-257
OVCAR-5 = test system: OVCAR-5
NCI-H226 = test system: NCI-H226
MDA-MB-435 = test system: MDA-MB-435
SK-MEL-5 = test system: SK-MEL-5
T47D = test system: T47D
U-251 = test system: U-251
COLO 205 = test system: COLO 205
LOX IMVI = test system: LOX IMVI
UACC-62 = test system: UACC-62
UO-31 = test system: UO-31
HL-60 = test system: HL-60
NCI-H522 = test system: NCI-H522
HT-29 = test system: HT-29
Malme-3M = test system: Malme-3M
SN12C = test system: SN12C
SF-539 = test system: SF-539
SK-MEL-28 = test system: SK-MEL-28
TK-10 = test system: TK-10
SF-268 = test system: SF-268
CAKI-1 = test system: CAKI-1
IGROV-1 = test system: IGROV-1
K562 = test system: K562
A549 = test system: A549
NCI-H460 = test system: NCI-H460
RPMI-8226 = test system: RPMI-8226
HCC 2998 = test system: HCC 2998

Compound: Cc1cc(C)c2c(=O)n(CN3CCC(C#N)(c4ccccc4)CC3)sc2n1
- GI50 (EKVX): 52.7 µM (inactive)
- GI50 (MCF7): 62.5 µM (inactive)
- GI50 (786-0): 22.7 µM (inactive)
- GI50 (RXF 393): 26.3 µM (inactive)
- GI50 (Hs-578T): 47.8 µM (inactive)
- GI50 (SF-295): > 100 µM (inactive)
- GI50 (SW-620): 24.4 µM (inactive)
- GI50 (OVCAR-3): 83 µM (inactive)
- GI50 (M14): 50.2 µM (inactive)
- GI50 (NCI/ADR-RES): 51.1 µM (inactive)
- GI50 (SNB-19): > 100 µM (inactive)
- GI50 (SK-MEL-2): > 100 µM (inactive)
- GI50 (HOP-62): 44.1 µM (inactive)
- GI50 (PC-3): 76.7 µM (inactive)
- GI50 (SK-OV-3): > 100 µM (inactive)
- GI50 (DU-145): > 100 µM (inactive)
- GI50 (HCT-116): > 100 µM (inactive)
- GI50 (SR): 49.9 µM (inactive)
- GI50 (MOLT-4): 49.4 µM (inactive)
- GI50 (HOP-92): 88.1 µM (inactive)
- GI50 (ACHN): 21.7 µM (inactive)
- GI50 (CCRF-CEM): 20.3 µM (inactive)
- GI50 (OVCAR-4): 30.3 µM (inactive)
- GI50 (NCI-H23): 34.4 µM (inactive)
- GI50 (KM12): > 100 µM (inactive)
- GI50 (HCT-15): 39.1 µM
- GI50 (MDA-N): 29.6 µM (inactive)
- GI50 (SNB-75): 37.7 µM (inactive)
- GI50 (MDA-MB-231): > 100 µM (inactive)
- GI50 (OVCAR-8): 28.6 µM (inactive)
- GI50 (BT-549): 91.2 µM (inactive)
- GI50 (A498): > 100 µM (inactive)
- GI50 (UACC-257): 22.2 µM (inactive)
- GI50 (OVCAR-5): 30.9 µM (inactive)
- GI50 (NCI-H226): > 100 µM (inactive)
- GI50 (MDA-MB-435): 24.4 µM (inactive)
- GI50 (SK-MEL-5): 72.1 µM (inactive)
- GI50 (T47D): > 100 µM (inactive)
- GI50 (U-251): > 100 µM (inactive)
- GI50 (COLO 205): 30.8 µM (inactive)
- GI50 (LOX IMVI): 26.2 µM (inactive)
- GI50 (UACC-62): > 100 µM (inactive)
- GI50 (UO-31): 17.8 µM (inactive)
- GI50 (HL-60): 18.5 µM (inactive)
- GI50 (NCI-H522): 14.3 µM (inactive)
- GI50 (HT-29): 39.9 µM (inactive)
- GI50 (Malme-3M): 22.5 µM (inactive)
- GI50 (SN12C): > 100 µM (inactive)
- GI50 (SF-539): 31.3 µM (inactive)
- GI50 (SK-MEL-28): 42.5 µM (inactive)
- GI50 (TK-10): 25.6 µM (inactive)
- GI50 (SF-268): 40 µM (inactive)
- GI50 (CAKI-1): 39.3 µM (inactive)
- GI50 (IGROV-1): > 100 µM (inactive)
- GI50 (K562): 54 µM (inactive)
- GI50 (A549): 97.9 µM (inactive)
- GI50 (NCI-H460): 40.4 µM (inactive)

Compound: Cc1cc(O)cc2c1c(=O)c1ccccc1n2C
- GI50 (EKVX): > 100 µM (inactive)
- GI50 (MCF7): > 100 µM (inactive)
- GI50 (786-0): 44.4 µM (inactive)
- GI50 (RXF 393): 41.5 µM (inactive)
- GI50 (Hs-578T): 37.1 µM (inactive)
- GI50 (SF-295): 52.2 µM (inactive)
- GI50 (SW-620): > 100 µM (inactive)
- GI50 (OVCAR-3): > 100 µM (inactive)
- GI50 (M14): > 100 µM (inactive)
- GI50 (NCI/ADR-RES): 68.1 µM (inactive)
- GI50 (SNB-19): 34.8 µM (inactive)
- GI50 (SK-MEL-2): > 100 µM (inactive)
- GI50 (PC-3): > 100 µM (inactive)
- GI50 (SK-OV-3): 75.2 µM (inactive)
- GI50 (DU-145): > 100 µM (inactive)
- GI50 (HCT-116): 54.7 µM (inactive)
- GI50 (SR): 48.5 µM (inactive)
- GI50 (MOLT-4): 55.1 µM (inactive)
- GI50 (HOP-92): 39.4 µM (inactive)
- GI50 (ACHN): 89.7 µM (inactive)
- GI50 (CCRF-CEM): > 100 µM (inactive)
- GI50 (OVCAR-4): 80.2 µM (inactive)
- GI50 (NCI-H23): 38.9 µM (inactive)
- GI50 (KM12): > 100 µM (inactive)
- GI50 (HCT-15): > 100 µM
- GI50 (MDA-N): > 100 µM (inactive)
- GI50 (SNB-75): 87.5 µM (inactive)
- GI50 (MDA-MB-231): > 100 µM (inactive)
- GI50 (OVCAR-8): 31.7 µM (inactive)
- GI50 (BT-549): 50.6 µM (inactive)
- GI50 (A498): 45.3 µM (inactive)
- GI50 (UACC-257): > 100 µM (inactive)
- GI50 (OVCAR-5): > 100 µM (inactive)
- GI50 (NCI-H226): 49.1 µM (inactive)
- GI50 (MDA-MB-435): > 100 µM (inactive)
- GI50 (RPMI-8226): > 100 µM (inactive)
- GI50 (SK-MEL-5): 62.5 µM (inactive)
- GI50 (T47D): 73.5 µM (inactive)
- GI50 (U-251): 54.1 µM (inactive)
- GI50 (COLO 205): > 100 µM (inactive)
- GI50 (LOX IMVI): > 100 µM (inactive)
- GI50 (UACC-62): > 100 µM (inactive)
- GI50 (UO-31): > 100 µM (inactive)
- GI50 (HL-60): 66.8 µM (inactive)
- GI50 (NCI-H522): 34.8 µM (inactive)
- GI50 (HT-29): > 100 µM (inactive)
- GI50 (SN12C): > 100 µM (inactive)
- GI50 (SF-539): 32.5 µM (inactive)
- GI50 (TK-10): 46.9 µM (inactive)
- GI50 (SF-268): 31.7 µM (inactive)
- GI50 (CAKI-1): > 100 µM (inactive)
- GI50 (IGROV-1): > 100 µM (inactive)
- GI50 (A549): > 100 µM (inactive)
- GI50 (NCI-H460): 5.33 µM (inactive)

Compound: Cc1ccc2nc(Cl)c(/C=N/N3C(=O)/C(=C/c4ccc(N(C)C)cc4)N=C3c3ccccc3)cc2c1
- GI50 (EKVX): 80.9 µM (inactive)
- GI50 (MCF7): 29 µM (inactive)
- GI50 (786-0): > 100 µM (inactive)
- GI50 (Hs-578T): 40.1 µM (inactive)
- GI50 (SF-295): 29.9 µM (inactive)
- GI50 (SW-620): 57.8 µM (inactive)
- GI50 (OVCAR-3): 13.9 µM (inactive)
- GI50 (M14): 47.8 µM (inactive)
- GI50 (HCC 2998): 66.2 µM (inactive)
- GI50 (NCI/ADR-RES): 32.7 µM (inactive)
- GI50 (SNB-19): > 100 µM (inactive)
- GI50 (SK-MEL-2): 21.9 µM (inactive)
- GI50 (HOP-62): 42.8 µM (inactive)
- GI50 (PC-3): 47.6 µM (inactive)
- GI50 (SK-OV-3): > 100 µM (inactive)
- GI50 (DU-145): 80 µM (inactive)
- GI50 (HCT-116): 39.4 µM (inactive)
- GI50 (SR): 32.6 µM (inactive)
- GI50 (MOLT-4): 24.4 µM (inactive)
- GI50 (HOP-92): 71.3 µM (inactive)
- GI50 (ACHN): 76.9 µM (inactive)
- GI50 (CCRF-CEM): 29.9 µM (inactive)
- GI50 (OVCAR-4): 70 µM (inactive)
- GI50 (KM12): 40.7 µM (inactive)
- GI50 (HCT-15): 55.2 µM
- GI50 (MDA-N): 29.1 µM (inactive)
- GI50 (SNB-75): 24 µM (inactive)
- GI50 (MDA-MB-231): 38.9 µM (inactive)
- GI50 (OVCAR-8): 41.8 µM (inactive)
- GI50 (BT-549): > 100 µM (inactive)
- GI50 (A498): 43.8 µM (inactive)
- GI50 (UACC-257): 80.2 µM (inactive)
- GI50 (OVCAR-5): > 100 µM (inactive)
- GI50 (MDA-MB-435): 22.1 µM (inactive)
- GI50 (RPMI-8226): 23.7 µM (inactive)
- GI50 (SK-MEL-5): 48.5 µM (inactive)
- GI50 (T47D): 43.4 µM (inactive)
- GI50 (U-251): 26 µM (inactive)
- GI50 (COLO 205): 51.1 µM (inactive)
- GI50 (LOX IMVI): 31.5 µM (inactive)
- GI50 (UACC-62): 43.4 µM (inactive)
- GI50 (UO-31): 37 µM (inactive)
- GI50 (HL-60): 32.4 µM (inactive)
- GI50 (HT-29): 63.7 µM (inactive)
- GI50 (SN12C): 80.7 µM (inactive)
- GI50 (SF-539): 18.2 µM (inactive)
- GI50 (SK-MEL-28): > 100 µM (inactive)
- GI50 (TK-10): > 100 µM (inactive)
- GI50 (SF-268): 37.2 µM (inactive)
- GI50 (CAKI-1): > 100 µM (inactive)
- GI50 (IGROV-1): 29 µM (inactive)
- GI50 (K562): 59.4 µM (inactive)
- GI50 (A549): 37.8 µM (inactive)
- GI50 (NCI-H460): 37.5 µM (inactive)
